Measured values taken from patent US20220347146A1, “CANCER TREATMENT” (AXELIA ONCOLOGY PTY LTD, priority 2019, published 2022).

Legend:
EMT6.5 cells = assay: EMT6.5 orthotopic mammary tumour model, i.v. therapy; type: in vivo, mouse
Protocol: Balb/c mice (n=12) were implanted orthotopically with 100,000 EMT6.5 cells into the 4th inguinal mammary gland and established tumours monitored by calliper measurement. When tumours were ˜200 mm^3 the mice were randomized to either one of two therapeutic arms (n=6 per arm); 1) compound A108 (10 μg, per mouse), or 2) Vehicle (saline) control. Therapy was administered intravenously to tumour bearing mice in three doses, three days apart. All mice completed therapy and were culled 21 days after tumour implant. The primary tumours, lungs and spleens were recovered and weighed. Lungs were analysed by real time quantitative PCR (RTQ-PCR) for evaluation of metastatic burden. Body weight was measured throughout the experiment.

[1] = cited from earlier work; for IL-10 and Tregs / anti-tumour activity: subcutaneous or intraperitoneal administration (Yamazaki et al. 2011)

Molecule	severe weight loss (EMT6.5 cells; 10 μg per mouse i.v., three doses)	body weight on initial therapy (EMT6.5 cells; 10 μg per mouse i.v., three doses three days apart, data not shown)	reversibility of weight loss (EMT6.5 cells; following cessation of therapy)	IL-10 and Tregs [1]	anti-tumour activity [1]	myeloid derived suppressor cells ([1]; intravenous administration (Maruyama et al. 2015))
CCCCCCCCCCCCCCCC(=O)OC[C@H](CSC[C@H](N)C(=O)N[C@@H](CO)C(=O)NCCOCCOCCOCCOCCOCCOCCOCCOCCOCCOCCOCCOCCOCCOCCOCCOCCOCCOCCOCCOCCOCCOCCOCCOCCOCCOCCOCCOCCC(=O)NCC(N)=O)OC(=O)CCCCCCCCCCCCCCC [A108]	No severe weight loss was observed	induced an acute weight loss	reversible following cessation of therapy			
MALP2				induce IL-10 and Tregs	no anti-tumour activity	
Pam2CysSK4				induce IL-10 and Tregs	no anti-tumour activity	promotes myeloid derived suppressor cells
